The term melting point denotes the temperature of the solid-liquid transition. `Cc1nc(N)nc(N)c1CCCc1ccc(Cl)cc1Cl` returned a melting point of 181 to 185 °C.
In turn, `O=C(CC[C@H]1CC[C@H](Nc2ncc3ncnc(Nc4ccc(F)c(Cl)c4)c3n2)CC1)N1CCOCC1` registered a melting point of 186 to 191 °C.
Take `O=S(=O)(Nc1ccc2c(OCc3csc(-c4ccccc4)n3)cccc2c1)C(F)(F)F`: the melting point lay in the range of 89 to 99 °C.
Then `COCCN(C)C(=O)Nc1c(C(=O)c2ccccc2)[nH]c2cc(Cl)ccc12`, with 66 to 72 °C; and `NNCC1(O)c2ccccc2C=Cc2ccccc21`, with 128 to 131 °C.
`COC(=O)CCNc1ccc(CNC(=O)C2Cc3ccccc3N2S(=O)(=O)c2ccc(-c3cccc(C(F)(F)F)c3)cc2)cc1` (stereo not drawn): the melting point is 61 °C.
As to `CCCCN(C(=O)c1cnc(N2CC(C)(C)NC2=O)nc1N)c1cccc(C(F)(F)F)c1`, the melting point was in the range of 154 to 155 °C.
As to `O=C(NOC(=O)c1ccc(Cl)cc1)OCc1ccccc1`, the melting point stood at 97 °C.
Consider `CC(=C[N+](=O)[O-])c1ccccc1O`, for which the melting point was in the range of 110 to 112 °C.
Then `CC1(C)CC(=O)c2c(SCCO)sc(-c3cc[nH]n3)c2C1`, with 182 to 185 °C.
On to `CCOC(=O)c1[nH]cc2c1NC1=C(C(=O)CCC1)C2c1ccc(Sc2nc3c(F)c(F)c(F)cc3[nH]2)o1` (stereo not drawn), for which the melting point came to 186 °C.
Take `Nc1nc(Cl)c(N)c(NCCCCO)n1`: the melting point was 110 to 111 °C.
Then `O=C(O)CCCOC(c1ccccc1)(c1ccccc1)c1ccccc1`, with 137 to 140 °C; and `COc1ccc(CCC(=O)Nc2nc3c(s2)CCN(CC=Cc2cccnc2)CC3)cc1`, with 168 to 170 °C; and `COc1cc(OC)c2c(=O)[nH]c(-c3cccc(-c4ccc(C(=O)N(C)C)cc4)n3)nc2c1`, with 217 to 219 °C.
Under `CCOC(=O)C(=O)CC(=O)C(=CN(C)C)c1ccccc1` stands 110 °C; under `O=C(CCn1ccnc1)c1c[nH]c2ccccc12`, 194 to 197 °C; under `C[C@H]([C@](O)(Cn1cncn1)c1ccc(F)cc1F)S(=O)(=O)N1CCN(c2ccc(C(F)(F)F)cc2)CC1`, 158 to 159 °C.
`c1ccc(-c2[nH]c3cc4c(cc3c2-c2ccccc2)OCO4)cc1` yielded a melting point of 187 to 188 °C.
Then `Cc1ccc(-c2ccc(CCCCC(=O)O)s2)cc1`, with 124 to 127 °C; and `COc1ccc(C(=O)[C@H]2CC=CC[C@H]2C(=O)O)c2c1OC(C)(C)C2` (relative stereo), with 154 to 156 °C.
Then `C=CCc1cc(OC)c(OC)cc1Cc1cnc(N)nc1N`, with 170 to 171 °C; and `CS(=O)(=O)c1ccc(-c2[nH]c3ccc(Cl)cc3c2-c2ccc(Cl)cc2)cc1`, with 281 to 283 °C; and `CC(C)(C)OC(=O)COc1ccc(-c2c(Cl)c(CN3C(=O)CCC3=O)nc3sc4c(c23)CCSC4)cc1`, with 191 to 192 °C.
Then `CCC1(C)CC(=O)C(C(=O)Nc2ccc(C(F)(F)F)cc2)C(=O)C1` (stereo not drawn), with 99 to 100 °C; and `COc1cc2c(c3c1OC(C)(C)C3)C(c1ccn(Cc3ccc(C(=O)NCCO)cc3)c(=O)c1)=NC(C)(C)C2`, with 220 to 222 °C.
Compound `CCCCc1nn2cccc(C(=O)OC)c2c1Cc1ccc(Br)cc1` gave a melting point of 80 to 85 °C.
Under `CC12CCC3C(CC=C4CC(F)CCC43C)C1CCC2=O` (stereo not drawn) stands 155 to 156 °C; under `Cc1c(Cc2cccc(C(F)(F)F)c2)oc2cccc(-c3cccc(C(=O)NCCO)c3)c12`, 139 to 141 °C; under `COc1ccc(-c2nc(-c3ccccn3)cs2)cc1`, 100 to 103 °C.
With `c1ccc(SCCn2c(-c3ccccc3)nc3cc(CN4CCN(C(c5ccccc5)c5ccccc5)CC4)ccc32)cc1`, the melting point was in the range of 118 to 125 °C.
Under `CCOC(=O)Cc1c(C)n(-c2ncnc3ccccc23)c2ccc(OC)cc12` stands 121 to 123 °C; under `CCn1c(=O)c(-c2cccs2)cc2cnc(Nc3ccccc3)nc21`, 223 to 225 °C.
Under `COc1cc(C(=O)NS(=O)(=O)c2ccccc2C)ccc1CN1CCOc2ccc(NC(=O)CC3CCCC3)cc21` stands 207 to 208 °C; under `COc1ccc(C2CNC(=O)C2)cc1OS(=O)(=O)C(F)(F)F` (stereo not drawn), 99 to 101 °C.
`COC1(OC)CCC2=C(CC(C)C3C2CCC2(C)CCCC32)C1` (stereo not drawn) registered a melting point of 57 °C.
Under `CCOC(=O)COc1ccc2c(c1[N+](=O)[O-])C(=O)CC2` stands 137 to 139 °C.
Under `CCCCN(CC)c1nc(C)nc2c1NC(=S)CN2c1ccc(C(C)C)cc1Br` stands 148 to 149 °C; under `COc1cc2c(c(Cl)c1Cl)C(=O)C(C)(C(C)C)C2` (stereo not drawn), 143 °C; under `Cc1ccc(C(=O)C2=C(O)C(=O)N(c3ccc(C)nn3)C2c2ccc(C(F)(F)F)cc2)cc1` (stereo not drawn), 278 °C.
`Cc1cccc(Cn2cc(-c3cn(C4CC(O)C(CO)O4)c(=O)[nH]c3=O)nn2)c1` (stereo not drawn) had a melting point of 132 to 133 °C.
As for `CC(C)(Cc1c[nH]c2ccc(Br)cc12)[N+](=O)[O-]`, the melting point is 106 to 109 °C.
As for `CC#CC(C)(C)NC(=O)C(Br)CC` (stereo not drawn), the melting point lay in the range of 79 to 81 °C.
Under `COc1nc2cc(Cl)c(Cl)cc2nc1N1CCN(C)CC1` stands 92.6 to 99 °C.
Under `CCN(CC)C(=O)c1cc(-c2ccc(Cl)cc2)c2ccsc2c1` stands 135 °C.
On to `COc1cc2ncnc(N3CCN(C(=O)Nc4ccccc4)CC3)c2cc1OC`, for which the melting point is 121 to 123 °C.
Then `CN(C)S(=O)(=O)NC(c1ccccc1)P(=O)(Oc1ccccc1)Oc1ccccc1` (stereo not drawn), with 193 to 196 °C.
In turn, `O=C(O)c1ccc(OCc2ccc(Cl)c(Cl)c2)cc1` gave a melting point of 222 to 223 °C.
Then `O=S1(=O)c2cc(C=C(c3ccccc3)c3ccccc3)ccc2N(c2ccccc2)c2ccc(C=C(c3ccccc3)c3ccccc3)cc21`, with 269 to 274 °C.
Under `CNN(NC)C(=O)Nc1cccc2c1C(=O)c1c-2n[nH]c1-c1ccc(OC)cc1` stands greater than 300 °C.
Then `CC(C)(C)OC(=O)N[C@H](Cc1ccccc1)C(=O)OCCCNc1cccc2c1C(=O)c1ccccc1C2=O`, with 168 °C; and `Cc1nc(Nc2ccccc2)sc1-c1cccnc1`, with 178 to 180 °C; and `COc1cc(-c2c(Cl)c(CN3CCCC3=O)nc3sc4c(c23)CCN(Cc2ccccc2)C4)ccc1O`, with 190 to 191 °C.
`CCCN(CCC)[C@H]1Cc2c[nH]c3ccc(-c4nc(-c5ccccc5)no4)c(c23)C1` had a melting point of 154 to 155 °C.
Consider `CCOc1c(NC(C)(C)C)c(=O)c1=O`, for which the melting point was in the range of 80 to 82 °C.
`CCC(=O)N1C(=O)C2C=CC1C2` (stereo not drawn): the melting point lay within 54 to 56 °C.
Then `CCn1nc2c(N)nc3ncccc3c2c1CC(C)C`, with 273 to 276 °C.
Take `CN(C)CCN(CCN(C)C)c1ccc(-c2nc3ccccc3[nH]2)cc1`: the melting point was 190 to 191 °C.
`O=C(CCc1ccccc1)c1cc2ccncc2[nH]1` had a melting point of 246 to 250 °C.
The compound `O=C(O)C1=C(C(=O)O)Oc2ccccc2O1` yielded a melting point of 215 to 218 °C.
With `COC(=O)[C@H](Cc1cc(F)cc(F)c1)NC(=O)OC(C)(C)C`, the melting point was 81 °C.
In the case of `COc1ccccc1C1(O)C(O)CC(c2ccccc2)(c2ccccc2)C2CN(C(=O)Cc3c[nH]c4ccc(O)cc34)CC21` (mixture of isomers), the melting point was 230 to 235 °C.
Under `CC(C)C[C@@H](O)CC(=O)O` stands 86 °C; under `CC(C)C(c1cncnc1C(F)(F)F)N(C)C(=O)Cc1ccccc1` (stereo not drawn), 106 to 109 °C.
Compound `CC(C)(C)OC(=O)N1CCN(c2cccc3ccc(-n4nnc5ncccc54)cc23)CC1` came in with a melting point of 173 to 175 °C.
`CS(=O)(=O)NC[C@@H]1CN(c2ccc(N3CCC(O)(CN=[N+]=[N-])CC3)c(F)c2)C(=O)O1` yielded a melting point of 142 to 144 °C.
Then `COC1=C(OC)C(=O)C2=C(CCC(CCOc3ccc(C#N)cc3)CC2)C1=O`, with 105 to 107 °C; and `Cc1c(Cc2ccc(C(C)C)cc2)c2c(c(C)c1NC(=O)CC(C)(C)C)CC(C)(CN1CCCC1)O2` (stereo not drawn), with 143 to 144 °C.
Under `C=C(c1ccc(N(C)C)cc1)c1ccc(N(C)C)cc1C` stands 90 to 91 °C; under `Oc1ccc2nccc(Cl)c2c1`, 223 °C; under `O=C1OC(=O)c2cc(N3C(=O)CCC3=O)ccc21`, 228 to 230 °C.
In the case of `N#Cc1ccc(-c2cccc(C=O)c2O)cc1`, the melting point was 120 to 121 °C.
In turn, `O=C(O)c1ccc2nc3c(c(=O)n2c1)CCC3=Cc1cccc(O)c1` yielded a melting point greater than 320 °C.
Under `C=CCNc1nc(N(CC=C)CC=C)nc2ccc([N+](=O)[O-])cc12` stands 167 to 168 °C; under `CCc1nc2c(N)nc3cc(CCC(=O)N4CCOCC4)ccc3c2n1CC(C)(C)O`, 237 to 239 °C; under `CCS(=O)(=O)NC(=O)N1CC1C#N` (stereo not drawn), 70 to 73 °C.
Compound `Cc1nccc2[nH]c(=O)c(C(=O)NN)cc12` showed a melting point greater than 310 °C.
For `CC(C)OC(=O)N[C@@H](C(=O)O)c1ccccc1`, the melting point lay within 123 to 127 °C.
Regarding `CC(C)[C@@H]1COC(=O)N1C(=O)CCc1ccccc1`, the melting point was found to be 62 °C.
Under `CC(C)(NC=O)C(=O)O` stands 130 to 131 °C.
Then `Cn1cc(-c2ccccc2)c(=S)c(-c2ccccc2)c1`, with 168 to 171 °C; and `O=[N+]([O-])c1ccccc1Nc1ccc(Nc2nccs2)cc1`, with 195 to 197 °C.
In the case of `CCNc1ccnc(Cl)c1`, the melting point lay in the range of 55 to 57 °C.
Under `CSc1ccc(C2=C(c3cccs3)C(=O)C(C)(C)O2)cc1` stands 113 to 114 °C; under `Nc1c([N+](=O)[O-])cnn1-c1ncc(Cl)cc1Cl`, 194 °C.
`CCOC(=O)NC(=S)OCc1ccccc1` registered a melting point of 96 °C.
Take `COc1ccc(/C=C(\C#N)c2ccccc2F)cc1OC1CCCC1`: the melting point is 70 to 73 °C.
Then `CNS(=O)(=O)c1ccccc1Nc1nc(Nc2ccc3c(c2)CCN(CCOC)CC3)ncc1Cl`, with 102 to 108 °C.

(Values after a melting point compilation (Tetko et al.; mined from patent text by program, amines drawn as free bases though some values may be those of a salt).)
